Laboratory results taken from patent US20140256945A1, “PHOSPHONIC ACID COMPOUNDS AS SPHINGOSINE-1-PHOSPHATE RECEPTOR MODULATORS” (Allergan, Inc., priority 2013, published 2014).

Assays:
[1] = target: T1, human S1P1 receptor (Homo sapiens, UniProt P21453); assay: GTP γ35S binding assay for S1P1 activity; type: biochemical; settings: membranes of cells stably expressing S1P1 receptor, agonist potency
T1 construct: expressed in transfected cells; membranes used
Protocol: Compounds were tested for S1P1 activity using the GTP γ^35S binding assay. These compounds may be assessed for their ability to activate or block activation of the human S1P1 receptor in cells stably expressing the S1P1 receptor.
GTP γ^35S binding was measured in the medium containing (mM) HEPES 25, pH 7.4, MgCl2 10, NaCl 100, dithitothreitol 0.5, digitonin 0.003%, 0.2 nM GTP γ^35S, and 5 μg membrane protein in a volume of 150 μl. Test compounds were included in the concentration range from 0.08 to 5,000 nM unless indicated otherwise. Membranes were incubated with 100 μM 5′-adenylylimmidodiphosphate for 30 min, and subsequently with 10 μM GDP for 10 min on ice. Drug solutions and membrane were mixed, and then reactions were initiated by adding GTP γ^35S and continued for 30 min at 25° C. Reaction mixtures were filtered over Whatman GF/B filters under vacuum, and washed three times with 3 mL of ice-cold buffer (HEPES 25, pH7.4, MgCl2 10 and NaCl 100). Filters were dried and mixed with scintillant, and counted for ^35S activity using a β-counter. Agonist-induced GTP γ^35S binding was obtained by subtracting that in the absence of agonist. Binding data were analyzed using a non-linear regression method. In case of antagonist assay, the reaction mixture contained 10 nM S1P in the presence of test antagonist at concentrations ranging from 0.08 to 5000 nM.

[2] = tested on: blood lymphocytes; assay: Lymphopenia Assay in Mice; type: in vivo
Protocol: Test drugs are prepared in a solution containing 3% (w/v) 2-hydroxy propyl β-cyclodextrin (HPBCD) and 1% DMSO to a final concentration of 1 mg/ml, and subcutaneously injected to female C57BL6 mice (CHARLES RIVERS) weighing 20-25 g at the dose of 0.5 to 10 mg/Kg. Blood samples are obtained by puncturing the submandibular skin with a Goldenrod animal lancet at 5, 24, 48, and 72 hrs post drug application. Blood is collected into microvettes (SARSTEDT) containing EDTA tripotassium salt. Lymphocytes in blood samples are counted using a HEMAVET Multispecies Hematology System, HEMAVET HV950FS (Drew Scientific Inc.). • (Hale, J. et al Bioorg.& Med. Chem. Lett. 14 (2004) 3351).
A lymphopenia assay in mice; as previously described, was employed to measure the in vivo blood lymphocyte depletion after dosing with the test compound (3-{[2,5-difluoro-4-(6-phenylhexyl)benzyl]amino}propyl)phosphonic acid Compound-10. This S1P1 modulator, (3-{[2,5-difluoro-4-(6-phenylhexyl)benzyl]amino}propyl)phosphonic acid Compound-10 is useful for S1P-related diseases and exemplified by the lymphopenia in vivo response. […] Lymphocytes in blood samples were counted using a HEMAVET Multispecies Hematology System, HEMAVET HV950FS (Drew Scientific Inc.). […]

T1 sequence (P21453 whole entry): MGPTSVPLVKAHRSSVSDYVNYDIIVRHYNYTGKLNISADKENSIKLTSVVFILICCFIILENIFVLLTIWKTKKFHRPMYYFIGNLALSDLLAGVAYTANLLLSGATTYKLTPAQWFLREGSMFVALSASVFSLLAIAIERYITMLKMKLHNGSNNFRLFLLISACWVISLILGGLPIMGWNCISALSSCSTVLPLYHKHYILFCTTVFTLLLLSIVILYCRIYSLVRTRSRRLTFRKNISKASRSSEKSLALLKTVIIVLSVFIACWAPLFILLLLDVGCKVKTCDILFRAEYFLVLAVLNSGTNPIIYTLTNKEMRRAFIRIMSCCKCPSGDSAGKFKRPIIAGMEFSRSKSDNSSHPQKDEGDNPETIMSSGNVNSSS

Row | SMILES | EC50 [1] | lymphocyte count (number of lymphocytes) ([2]; female C57BL6 mice, 0.5 mg/Kg subcutaneous, after 5 hours) | Lymphopenia ([2]; mice, 0.5 mg/kg, 5, 24, 48, 72 hours (FIG. 1))
1 | O=P(O)(O)CCCNCc1ccc(C#CCCCCc2ccccc2)c(F)c1 [Compound 1, (3-{[3-fluoro-4-(6-phenylhex-1-yn-1-yl)benzyl]amino}propyl)phosphonic acid] | 4.3 nM |  | 
2 | O=P(O)(O)CCCNCc1ccc(C#CCCCCc2ccccc2)cc1 [Compound 3, (3-{[4-(6-phenylhex-1-yn-1-yl)benzyl]amino}propyl)phosphonic acid] | 26.7 nM |  | 
3 | O=P(O)(O)CCCNCc1ccc(C#CCCCCc2ccccc2)c(Br)c1 [Compound 4, (3-{[3-bromo-4-(6-phenylhex-1-yn-1-yl)benzyl]amino}propyl)phosphonic acid] | 22.1 nM |  | 
4 | O=P(O)(O)CCCNCc1ccc(CCCCCCc2ccccc2)c(F)c1 [Compound 5, (3-{[3-fluoro-4-(6-phenylhexyl)benzyl]amino}propyl)phosphonic acid] | 4.2 nM |  | 
5 | O=P(O)(O)CCCNCc1ccc(CCCCCCc2ccccc2)c(C(F)(F)F)c1 [Compound 7, (3-{[4-(6-phenylhexyl)-3-(trifluoromethyl)benzyl]amino}propyl)phosphonic acid] | 11.2 nM |  | 
6 | O=P(O)(O)CCCNCc1ccc(CCCCCCc2ccccc2)cc1 [Compound 9, (3-{[4-(6-phenylhexyl)benzyl]amino}propyl)phosphonic acid] | 6.8 nM |  | 
7 | O=C(CCCCc1ccccc1)Nc1ccc(CNCCCP(=O)(O)O)cc1Br [Compound 11, [3-({3-bromo-4-[(5-phenylpentanoyl)amino]benzyl}amino)propyl]phosphonic acid] | 105 nM |  | 
8 | O=P(O)(O)CCCNCc1ccc(NCCCCCc2ccccc2)c(Br)c1 [Compound 12, [3-({3-bromo-4-[(5-phenylpentyl)amino]benzyl}amino)propyl]phosphonic acid] | 4.1 nM |  | 

Compounds with a lower EC50 [1], results first:

Row | EC50 [1] | SMILES | lymphocyte count (number of lymphocytes) ([2]; female C57BL6 mice, 0.5 mg/Kg subcutaneous, after 5 hours) | Lymphopenia ([2]; mice, 0.5 mg/kg, 5, 24, 48, 72 hours (FIG. 1))
9 | 3.4 nM | Cc1cc(CNCCCP(=O)(O)O)ccc1C#CCCCCc1ccccc1 [Compound 2, (3-{[3-methyl-4-(6-phenylhex-1-yn-1-yl)benzyl]amino}propyl)phosphonic acid] |  | 
10 | 0.7 nM | Cc1cc(CNCCCP(=O)(O)O)ccc1CCCCCCc1ccccc1 [Compound 6, (3-{[3-methyl-4-(6-phenylhexyl)benzyl]amino}propyl)phosphonic acid] |  | 
11 | 0.5 nM | O=P(O)(O)CCCNCc1ccc(CCCCCCc2ccccc2)c(Cl)c1 [Compound 8, (3-{[3-chloro-4-(6-phenylhexyl)benzyl]amino}propyl)phosphonic acid] |  | 
12 | 1.9 nM | O=P(O)(O)CCCNCc1cc(F)c(CCCCCCc2ccccc2)cc1F [Compound 10, (3-{[2,5-difluoro-4-(6-phenylhexyl)benzyl]amino}propyl)phosphonic acid] | < 1 10^3/μL blood | Lymphopenia was induced
